The values below come from US9732032B2, “3-aminocyclopentane carboxamide derivatives” (Merck Patent GmbH, priority 2012, dated 2017).

Where only a bound is given, the exact number is not on record here.

The term IC50 denotes the concentration that gives 50% inhibition.

For this experiment, the target named is T1, human recombinant full-length fatty acid synthase (FASN) (Homo sapiens, UniProt P49327).
T1 construct: human recombinant full-length fatty acid synthase; made in house; host or cells: SF9 cells
T1 sequence (P49327 whole entry): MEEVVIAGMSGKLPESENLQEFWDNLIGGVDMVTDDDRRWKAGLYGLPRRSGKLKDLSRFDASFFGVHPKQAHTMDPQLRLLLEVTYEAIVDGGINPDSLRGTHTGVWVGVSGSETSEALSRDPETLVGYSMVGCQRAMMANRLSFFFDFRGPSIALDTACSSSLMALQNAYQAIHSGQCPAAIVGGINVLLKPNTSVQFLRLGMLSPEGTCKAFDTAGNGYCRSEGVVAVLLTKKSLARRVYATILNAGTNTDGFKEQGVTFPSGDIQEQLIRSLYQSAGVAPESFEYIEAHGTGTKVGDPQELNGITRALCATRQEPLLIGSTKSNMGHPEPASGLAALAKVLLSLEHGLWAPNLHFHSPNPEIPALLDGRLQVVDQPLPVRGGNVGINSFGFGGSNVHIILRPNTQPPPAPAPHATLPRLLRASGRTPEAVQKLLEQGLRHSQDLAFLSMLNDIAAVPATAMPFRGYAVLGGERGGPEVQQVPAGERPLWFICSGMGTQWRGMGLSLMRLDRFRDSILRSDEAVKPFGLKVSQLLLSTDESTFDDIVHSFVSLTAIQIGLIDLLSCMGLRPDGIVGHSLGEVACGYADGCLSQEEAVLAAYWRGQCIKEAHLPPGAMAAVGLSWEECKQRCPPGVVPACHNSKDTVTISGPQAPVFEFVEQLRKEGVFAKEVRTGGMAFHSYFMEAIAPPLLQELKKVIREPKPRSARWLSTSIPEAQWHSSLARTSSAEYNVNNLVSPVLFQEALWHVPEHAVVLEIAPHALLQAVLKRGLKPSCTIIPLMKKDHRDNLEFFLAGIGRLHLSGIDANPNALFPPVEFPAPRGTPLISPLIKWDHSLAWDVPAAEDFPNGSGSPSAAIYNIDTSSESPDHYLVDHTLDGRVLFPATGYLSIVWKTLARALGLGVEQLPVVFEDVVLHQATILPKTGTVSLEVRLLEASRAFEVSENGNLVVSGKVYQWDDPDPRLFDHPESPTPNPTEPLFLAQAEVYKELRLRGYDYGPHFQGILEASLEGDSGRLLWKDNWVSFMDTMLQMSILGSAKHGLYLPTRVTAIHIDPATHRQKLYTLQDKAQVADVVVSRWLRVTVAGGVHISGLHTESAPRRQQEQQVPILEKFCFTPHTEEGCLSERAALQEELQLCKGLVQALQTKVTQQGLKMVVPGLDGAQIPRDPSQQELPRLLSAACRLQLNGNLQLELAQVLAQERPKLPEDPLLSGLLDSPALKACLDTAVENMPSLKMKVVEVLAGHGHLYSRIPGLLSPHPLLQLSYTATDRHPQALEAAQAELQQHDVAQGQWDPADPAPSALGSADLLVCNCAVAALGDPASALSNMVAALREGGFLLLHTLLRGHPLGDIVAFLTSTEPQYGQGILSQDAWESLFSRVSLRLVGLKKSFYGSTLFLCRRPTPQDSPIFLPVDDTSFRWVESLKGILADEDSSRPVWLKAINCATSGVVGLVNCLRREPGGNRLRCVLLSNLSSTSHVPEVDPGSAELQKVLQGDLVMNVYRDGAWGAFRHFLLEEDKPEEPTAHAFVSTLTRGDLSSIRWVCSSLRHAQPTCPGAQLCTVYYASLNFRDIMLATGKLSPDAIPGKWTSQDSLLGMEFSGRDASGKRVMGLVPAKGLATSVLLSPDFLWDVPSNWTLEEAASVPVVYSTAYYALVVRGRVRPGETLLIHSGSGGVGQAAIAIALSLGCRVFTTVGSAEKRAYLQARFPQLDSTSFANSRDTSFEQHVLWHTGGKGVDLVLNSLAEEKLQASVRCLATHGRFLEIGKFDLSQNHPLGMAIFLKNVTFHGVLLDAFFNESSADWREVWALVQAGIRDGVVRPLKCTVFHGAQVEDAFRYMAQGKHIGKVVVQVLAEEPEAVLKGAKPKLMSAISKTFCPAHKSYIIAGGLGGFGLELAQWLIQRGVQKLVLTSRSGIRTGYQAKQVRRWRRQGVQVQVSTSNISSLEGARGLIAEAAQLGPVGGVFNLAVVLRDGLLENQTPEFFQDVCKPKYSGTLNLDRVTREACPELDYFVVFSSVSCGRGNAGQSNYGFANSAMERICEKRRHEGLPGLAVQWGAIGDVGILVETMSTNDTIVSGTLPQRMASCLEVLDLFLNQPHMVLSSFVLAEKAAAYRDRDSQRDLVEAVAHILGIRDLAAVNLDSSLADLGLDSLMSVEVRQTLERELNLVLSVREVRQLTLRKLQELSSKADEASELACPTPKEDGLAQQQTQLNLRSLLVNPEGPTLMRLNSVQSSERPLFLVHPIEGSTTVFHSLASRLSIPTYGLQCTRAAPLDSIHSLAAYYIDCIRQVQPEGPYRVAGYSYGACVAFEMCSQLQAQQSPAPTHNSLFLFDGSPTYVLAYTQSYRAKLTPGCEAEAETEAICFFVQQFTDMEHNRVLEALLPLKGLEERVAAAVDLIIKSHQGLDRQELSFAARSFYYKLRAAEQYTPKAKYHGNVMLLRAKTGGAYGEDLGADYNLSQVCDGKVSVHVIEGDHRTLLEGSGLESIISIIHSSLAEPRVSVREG
As to the kind of experiment: Biochemical activity testing of human fatty acid synthase FASN (NADPH fluorescence intensity assay). To be noted: NADPH fluorescence decrease (ex 340 nm / em 460 nm), 30 minutes at room temperature, read-out: IC50 FASN (enzyme assay). From the text: aq (aqueous), h (hour), g (gram), L (liter), mg (milligram), MHz (Megahertz), (melting point), eq (equivalent), mL (milliliter), L (microliter), ACN (acetonitrile), AcOH (acetic acid), CDCl3 (deuterated chloroform), CD3OD (deuterated methanol), CH3CN (acetonitrile), c-hex (cyclohexane), DCC (dicyclohexyl carbodiimide), DCM (dichloromethane), DIC (diisopropyl carbodiimide), DIEA (diisopropylethyl-amine), DMF (dimethylformamide), DMSO (dimethylsulfoxide), DMSO-d6 (deuterated dimethylsulfoxide), EDC (1-(3-dimethyl-amino-propyl)-3-ethylcarbodiimide), ESI (Electro-spray ionization), EtOAc (ethyl acetate), Et2O (diethyl ether), EtOH (ethanol), HATU (dimethylamino-([1,2,3]triazolo[4,5-b]pyridin-3-yloxy)-methylene]-dimethylammonium hexafluorophosphate), HPLC (High Performance Liquid Chromatography), i-PrOH (2-propanol), K2CO3 (potassium carbonate), LC (Liquid Chromatography), MeOH (methanol), MgSO4 (magnesium sulfate), MS (mass spectrometry), MTBE (Methyl tert-butyl ether), NaHCO3 (sodium bicarbonate), NaBH4 (sodium borohydride), NMM (N-methyl morpholine), NMR (Nuclear Magnetic Resonance), PyBOP (benzotriazole-1-yl-oxy-trispyrrolidino-phosphonium hexafluorophosphate), RT (room temperature), Rt (retention time), SPE (solid phase extraction), TBTU (2-(1-H-benzotriazole-1-yl)-1,1,3,3-tetramethyluromium tetrafluoro borate), TEA (triethylamine), TFA (trifluoroacetic acid), THF (tetrahydrofuran), TLC (Thin Layer Chromatography), UV (Ultraviolet). Description of the In Vitro Assays Abbreviations: GST=Glutathione-S-transferase FRET=Fluorescence resonance energy transfer HTRF®=(homogenous time resolved fluorescence) HEPES=4-(2-hydroxyethyl)-1-piperazine ethanesulfonic acid buffer DTT=Dithiothreitol BSA=bovine serum albumin CHAPS=detergent; CHAPS=3[(3-cholamidopropyl)dimethylammonio]-1-propanesulfonate Biochemical Activity Testing of Human Fatty Acid Synthase FASN
Fatty acid synthase FASN is a multifunctional enzyme with seven catalytic activities thereby synthesising long chain fatty acids especially palmitoyl-CoA in the presence of co-factor NADPH starting from the substrates acetyl-CoA and malonyl-CoA. The reductive synthesis is realized by the oxidation of NADPH to NADP. Since NADPH has a high fluorescence intensity quantum yield compared to NADP with excitation at 340 nm and emission at 460 nm, the reaction can be monitored via the decrease in fluorescence intensity. The biochemical FASN activity testing was performed as 384 well two-time-point kinetic fluorescence intensity assay format in Greiner low volume medium binding 384-well black microtiter plates in a total assay volume of 8 μl and was used for high throughput screen. In each well 3 μl 40 nM human recombinant full-length fatty acid synthase (produced in-house in SF9 cells) were dispensed in the following assay buffer: 50 mM potassium phosphate buffer pH 7.0, 0.005% (w/v) BSA, 2 mM Glutathione, 0.02% Tween-20. Then 2 μl of 200 μM NADPH in assay buffer were added, followed by the addition of the test compounds in 10 dilution concentrations starting with 30 μM (final concentration) to get a final DMSO content of 1% (v/v). The mixture was incubated for at least 15 min at room temperature. After the pre-incubation the enzymatic reaction was started by the addition of 2 μl substrate solution (80 μM acetyl-CoA, 240 μM malonyl-CoA). A first fluorescence intensity measurement (time point one) was performed with an Envision multimode reader (Perkin Elmer LAS Germany GmbH) at excitation wavelength 340 nm (lamp mode) and emission wavelength 460 nm. The reaction was incubated for 30 minutes at room temperature. After this the fluorescence intensity was measured again in the Envision using the same parameters as described above (second time point measurement). The data were analysed by subtracting the first time point measurement value from the second time point measurement value (after the enzymatic reaction). The differences of the emission signals were determined. […]

Turning to `CCNC(=O)C1CC[C@@H](N(C)C(=O)c2ccc(-c3nc4cccc(F)c4o3)cc2)C1` (stereo in doubt) [Compound A100, N-((1R,3S)-3-ethylcarbamoyl-cyclopentyl)-4-(7-fluoro-benzooxazol-2-yl)-N-methyl-benzamide], the IC50 is below 300 nM.
On to `CCNC(=O)[C@H]1CC[C@@H](N(C)C(=O)c2ccc(-c3nc4ccccc4o3)cc2)C1` [Compound A1, 4-(1,3-benzoxazol-2-yl)-N-[(1R,3S)-3-(ethylcarbamoyl)cyclopentyl]-N-methyl-benzamide], for which the IC50 was below 300 nM.
Regarding `CCNC(=O)[C@H]1CC[C@@H](N(C)C(=O)c2ccc(-c3nc4ccccc4n3C)cc2)C1` [Compound A2, N-((1R,3S)-3-ethylcarbamoyl-cyclopentyl)-N-methyl-4-(1-methyl-1H-benzoimidazol-2-yl)-benzamide], the half-inhibitory concentration (IC50) was below 300 nM.
For `CCNC(=O)[C@H]1CC[C@@H](N(C)C(=O)c2ccc(-c3ccc(O[C@@H]4CCOC4)cc3)cc2)C1` [Compound A4, 4′-[(R)-(tetrahydro-furan-3-yl)oxy]-biphenyl-4-carboxylic acid ((1R,3S)-3-ethylcarbamoyl-cyclopentyl)-methyl-amide], the IC50 fell in the range of 300 to 3000 nM.
In the case of `CC(C)NC(=O)[C@H]1CC[C@@H](N(C)C(=O)c2ccc(-c3nc4ccccc4o3)cc2)C1` [Compound A5, 4-benzoxazol-2-yl-N-((1R,3S)-3-isopropylcarbamoyl-cyclopentyl)-N-methyl-benzamide], the IC50 was below 300 nM.
With `CN(C(=O)c1ccc(-c2nc3ccccc3o2)cc1)[C@@H]1CC[C@H](C(=O)NC2CC2)C1` [Compound A6, 4-benzoxazol-2-yl-N-((1R,3S)-3-cyclopropylcarbamoyl-cyclopentyl)-N-methyl-benzamide], the IC50 is below 300 nM.
As for `CN(C(=O)c1ccc(-c2nc3ccccc3o2)cc1)[C@@H]1CC[C@H](C(=O)NC2CCCC2)C1` [Compound A7, 4-benzoxazol-2-yl-N-((1R,3S)-3-cyclopentylcarbamoyl-cyclopentyl)-N-methyl-benzamide], the figure is below 300 nM; as for `CCNC(=O)[C@H]1CC[C@@H](N(C)C(=O)c2ccc(-c3nc4ccccc4[nH]3)cc2)C1` [Compound A11, 4-(1H-benzimidazol-2-yl)-N-[(1R,3S)-3-(ethylcarbamoyl)cyclopentyl]-N-methyl-benzamide], below 300 nM; as for `CCNC(=O)[C@@H]1CC[C@@H](N(C)C(=O)c2ccc(-c3nc4ccccc4o3)cc2)C1` [Compound A44, 4-(1,3-benzoxazol-2-yl)-N-[(1R,3R)-3-(ethylcarbamoyl)cyclopentyl]-N-methyl-benzamide], below 300 nM.
Then `CCNC(=O)[C@H]1CC[C@@H](N(C)C(=O)c2ccc(-c3nc4ccccc4o3)c(OC)c2)C1` [Compound A45, 4-benzoxazol-2-yl-N-((1R,3S)-3-ethylcarbamoyl-cyclopentyl)-3-methoxy-N-methyl-benzamide], with below 300 nM; and `CCNC(=O)[C@H]1CC[C@@H](N(C)C(=O)c2ccc(-c3nc4ccccc4o3)cc2OC)C1` [Compound A46, 4-benzoxazol-2-yl-N-((1R,3S)-3-ethylcarbamoyl-cyclopentyl)-2-methoxy-N-methyl-benzamide], with below 300 nM.
For `CCN(C)C(=O)[C@H]1CC[C@@H](N(C)C(=O)c2ccc(-c3nc4ccccc4o3)cc2)C1` [Compound A47, 4-benzoxazol-2-yl-N-[(1R,3S)-3-(ethyl-methyl-carbamoyl)-cyclopentyl]-N-methyl-benzamide], the 50% inhibitory concentration (IC50) was 300 to 3000 nM.
In the case of `CCN(CC)C(=O)[C@H]1CC[C@@H](N(C)C(=O)c2ccc(-c3nc4ccccc4o3)cc2)C1` [Compound A48, 4-benzoxazol-2-yl-N-((1R,3S)-3-diethylcarbamoyl-cyclopentyl)-N-methyl-benzamide], the IC50 fell in the range of 300 to 3000 nM.
As for `CCNC(=O)[C@H]1CC[C@@H](N(C)C(=O)c2ccc(-c3ccc(C)cc3)cc2)C1` [Compound A49, 4′-methyl-biphenyl-4-carboxylic acid ((1R,3S)-3-ethylcarbamoyl-cyclopentyl)-methyl-amide], the figure is below 300 nM.
Then `CCNC(=O)[C@H]1CC[C@@H](N(C)C(=O)c2ccc(-c3ccccc3)cc2)C1` [Compound A50, biphenyl-4-carboxylic acid ((1R,3S)-3-ethylcarbamoyl-cyclopentyl)-methyl-amide], with below 300 nM; and `CCNC(=O)[C@H]1CC[C@@H](N(C)C(=O)c2ccc(-c3ccccc3)cc2Cl)C1` [Compound A51, 3-chloro-biphenyl-4-carboxylic acid ((1R,3S)-3-ethylcarbamoyl-cyclopentyl)-methyl-amide], with below 300 nM; and `CCNC(=O)[C@H]1CC[C@@H](N(C)C(=O)c2ccc(-c3nnc(OC)cc3C)cc2)C1` [Compound A52, N-((1R,3S)-3-ethylcarbamoyl-cyclopentyl)-4-(6-methoxy-4-methyl-pyridazin-3-yl)-N-methyl-benzamide], with 3000 to 50000 nM.
Then `CCNC(=O)[C@H]1CC[C@@H](N(C)C(=O)c2ccc(-c3ccccc3)cn2)C1` [Compound A53, 5-phenyl-pyridine-2-carboxylic acid ((1R,3S)-3-ethylcarbamoyl-cyclopentyl)-methyl-amide], with below 300 nM; and `CCNC(=O)[C@H]1CC[C@@H](N(C)C(=O)c2ccc(C#Cc3ccc(Cl)cc3)cc2)C1` [Compound A54, 4-(4-chloro-phenylethynyl)-N-((1R,3S)-3-ethylcarbamoyl-cyclopentyl)-N-methyl-benzamide], with below 300 nM.
Consider `CCNC(=O)[C@H]1CC[C@@H](N(C)C(=O)c2ccc(C#Cc3ccc(F)cc3)cc2)C1` [Compound A55, N-((1R,3S)-3-ethylcarbamoyl-cyclopentyl)-4-(4-fluoro-phenylethynyl)-N-methyl-benzamide], for which the IC50 was below 300 nM.
As for `CCNC(=O)[C@H]1CC[C@@H](N(C)C(=O)c2ccc(-c3ccncc3)cc2)C1` [Compound A56, N-((1R,3S)-3-ethylcarbamoyl-cyclopentyl)-N-methyl-4-pyridin-4-yl-benzamide], the figure is below 300 nM.
Then `CCNC(=O)[C@H]1CC[C@@H](N(C)C(=O)c2ccc(-c3ccncc3)cc2F)C1` [Compound A57, N-((1R,3S)-3-ethylcarbamoyl-cyclopentyl)-2-fluoro-N-methyl-4-pyridin-4-yl-benzamide], with below 300 nM; and `CCNC(=O)[C@H]1CC[C@@H](N(C)C(=O)c2c(F)cc(-c3ccc(CC)cc3)cc2F)C1` [Compound A58, 4′-ethyl-3,5-difluoro-biphenyl-4-carboxylic acid ((1R,3S)-3-ethylcarbamoyl-cyclopentyl)-methyl-amide], with below 300 nM; and `CCNC(=O)[C@H]1CC[C@@H](N(C)C(=O)c2ccc(-c3ccccc3S(C)(=O)=O)cc2)C1` [Compound A59, 2′-methanesulfonyl-biphenyl-4-carboxylic acid ((1R,3S)-3-ethylcarbamoyl-cyclopentyl)-methyl-amide], with below 300 nM.
As for `CCNC(=O)[C@H]1CC[C@@H](N(C)C(=O)c2ccc(-c3ccccc3S(=O)(=O)NC(C)(C)C)cc2)C1` [Compound A60, 2′-tert-butylsulfamoyl-biphenyl-4-carboxylic acid ((1R,3S)-3-ethylcarbamoyl-cyclopentyl)-methyl-amide], the figure is 3000 to 50000 nM.
